Key:
[1] = target: mouse DD1α on mouse cells (CD4+ and CD8+ T cells, thymocytes, bone marrow-derived macrophages) (mouse) (UniProt Q9D659); assay: cell-based or functional assay
[2] = test system: CD4+ or CD8+ T cells from wt- or DD1α−/− mice; assay: Mouse T cell activation assay (CFSE proliferation); assay type: cell-based
Experimental: Enriched CD4+ and CD8+ T cells from Wt and DD1α−/− mice were stimulated, with 2.5 μg/ml anti-CD3 alone or together with DD1α-Ig or control Ig. The proliferations of CD4+ T cells (top graphs) or CD8+ T cells (bottom graphs) were determined by the percentage of CFSE-diluted CD8+ cells on day 3. The levels of cytokines (IFN-γ and TNF-α) in culture supernatant on day 2 were analyzed by ELISA. The results represent mean±SD from three experiments.
The inventors have discovered that DD1αregulates T cell activation through DD1α on T cells. […] The proliferations of CD4+ T cells were determined by percentage of CFSE-diluted CD4+ cells on day 3 and IFN-γ and levels in culture supernatants on day 2 were analyzed by ELISA. […] The proliferations of CD8+ T cells were determined by percentage of CD8+ T cells containing diluted CFSE signal on day 3. The cytokine levels in culture supernatant were analyzed by ELISA on day 2.
The amount of Ig protein was kept constant at 10 μg/ml by the addition of control Ig protein. Human CD4+ or CD8+ T cells were purified from freshly isolated PBMCs using CD4+ T Cell Isolation Kit II, human or CD8+ T Cell Isolation Kit, human (Miltenyi Biotec). Mouse CD4+ and CD8+ T cells were purified from splenocytes freshly isolated from mice using CD4+ T Cell Isolation Kit II, mouse or CD8a+ T Cell Isolation Kit II, mouse (Miltenyi Biotec). Purity was confirmed to be over 90% by flow cytometry. The T cells were labeled with 1 μM CFSE, quenched by cold FBS and incubated in the anti-CD3 & Ig proteins-coated plates. On day 2 after stimulation, supernatant was collected and cytokines were assayed by ELISA. On day 3, cells were stained with anti-CD4-APC (OKT4, eBioscience for human CD4+ T cells; RM4-5, eBioscience for mouse CD4+ T cells) or anti-CD8-APC (SK1, eBioscience for human CD8+ T cells; 53-6.7, eBioscience for mouse CD8+ T cells) and then analyzed for CFSE dilution by flow cytometry.

DD1α = assay: Ig fusion protein-pull down assay; assay type: binding, human
Experimental: (§1) FIGS. 6A-6E show physical association of DD1α with PD1 but not with PD-L1. (FIG. 6A) Interaction of DD1α with PD1 or DD1α. […] The bound Ig fusion proteins were detected with anti-Ig-APC. Empty vector (pcDNA3.1)-transfected cells stained with Ig proteins are shown as a negative control (gray filled) and other staining is shown as black open. (FIG. 6B) DD1α binds to both DD1α and PD1 on CD4+ T cells. Purified CD4+ T cells from Wt and DD1α−/− mice were assayed for binding to Ig fused DD1α or PD1 proteins. Cells were incubated with DD1α-Ig (open), PD1-Ig (open), or control Ig proteins (gray filled) and the bound Ig fusion proteins were detected by anti-Ig-APC. […] The bound Ig fusion proteins were detected by anti-Ig-APC. Binding amounts were determined by percentage of APC positive cells compared to control Ig protein-bound cells. (FIG. 6C) Ig-pulldown experiments show DD1α interaction with both DD1α and PD1. […] The bead bound proteins were eluted and determined by western blot analysis using anti-HA antibody (asterisks). (FIG. 6D) Ig fusion proteins (control Ig, DD1α-Ig, or PD1-Ig) were incubated with lysates from Nutlin-3-treated MCF7 cells and pulled down using protein A/G agarose. The bead bound proteins were eluted and detected by western blot analysis with anti-DD1α or anti-PD1 antibody (asterisk). (FIG. 6E) p53-mediated induction of PD1 and PD-L1. MCF7 cells were treated by Nutlin-3 (10 μM) for 1 to 3 days. MCF7 cells were transfected with control siRNA or p53 siRNA for 24 hours and treated with CPT (500 nM) or DMSO (control) for 1 and 2 days. The levels of indicated proteins were analyzed by western blot analysis. Total RNAs from control siRNA or p53 siRNA transfected MCF7 cells were assessed for mRNA levels of PD1 or PD-L1 by real-time quantitative PCR. PD1 or PD-L1 mRNA levels were normalized to 36B4 expression and shown as mean±SD (n=3). Protein levels of PD1 and PD-L1 were examined in EJ-p53tet cells in the absence or presence of tetracycline (tet), ZR75-1 cells treated with CPT (500 nM), or A375 cells exposed to 13 Gy ionizing irradiation for the indicated times.
Ig fusion proteins (control Ig, DD1α-Ig, or PD1-Ig) were incubated with lysates from Nutlin-3-treated MCF7 cells and pulled down using proten A/G agarose. The bead bound proteins were eluted and detected by western blot analysis with anti-DD1α or anti-PD1 antibody.
Based on the results that both PD-1 and DD1α receptors on T cells contribute to the co-inhibitory roles for DD1α(FIG. 5), it was tested whether DD1α could physically and functionally associate with PD-1 receptor. […] To confirm the specificity of this interaction, the inventors carried out Ig fusion protein-pull down assays using lysates from PD-1, DD1α, or TIM3-transfected 293T cells. […]

[3] = test system: wt- or DD1α−/− mouse CD4+ T cells; assay: Ig fusion protein binding to CD4+ T cells from Wt and DD1α−/− mice
Experimental: as §1, with “(FIG. 6D) Ig fusion proteins (control Ig, DD1α-Ig, or PD1-Ig) were incubated with lysates from Nutlin-3-treated MCF7 cells and pulled down using protein A/G agarose.” left out, “(FIG. 6E) p53-mediated induction of PD1 and PD-L1. MCF7 cells were treated by Nutlin-3 (10 μM) for 1 to 3 days. MCF7 cells were transfected with control siRNA or p53 siRNA for 24 hours and treated with CPT (500 nM) or DMSO (control) for 1 and 2 days.” left out, “PD1 or PD-L1 mRNA levels were normalized to 36B4 expression and shown as mean±SD (n=3). Protein levels of PD1 and PD-L1 were examined in EJ-p53tet cells in the absence or presence of tetracycline (tet), ZR75-1 cells treated with CPT (500 nM), or A375 cells exposed to 13 Gy ionizing irradiation for the indicated times.” left out

[4] = test system: Jurkat cells expressing DD1α receptor; assay: Ig fusion protein binding to Jurkat cells; conditions: several concentrations; anti-Ig-APC detection
Experimental: Jurkat cells overexpressing DD1alpha (transfected with DD1alpha cDNA) or control Jurkat cells were assayed for binding to Ig-fused DD1α or PD-1 proteins. Cells were incubated with several different concentrations of DD1α-Ig (left panels) or PD1-Ig (right panels), and the bound Ig fusion proteins were detected by anti-Ig-APC. Binding amounts were determined by percentage of APC positive cells.

MCF7 cells = assay: p53-mediated induction of checkpoint proteins (western blot); assay type: cell-based, human; conditions: 10 μM
Experimental: as §1, with “(FIG. 6D) Ig fusion proteins (control Ig, DD1α-Ig, or PD1-Ig) were incubated with lysates from Nutlin-3-treated MCF7 cells and pulled down using protein A/G agarose.” left out, “(FIG. 6E) p53-mediated induction of PD1 and PD-L1. MCF7 cells were treated by Nutlin-3 (10 μM) for 1 to 3 days. MCF7 cells were transfected with control siRNA or p53 siRNA for 24 hours and treated with CPT (500 nM) or DMSO (control) for 1 and 2 days.” left out, “PD1 or PD-L1 mRNA levels were normalized to 36B4 expression and shown as mean±SD (n=3). Protein levels of PD1 and PD-L1 were examined in EJ-p53tet cells in the absence or presence of tetracycline (tet), ZR75-1 cells treated with CPT (500 nM), or A375 cells exposed to 13 Gy ionizing irradiation for the indicated times.” left out

[5] = target: T1, DD1α-Ig fusion protein (the extracellular region of DD1α fused with the immunoglobulin G Fc segment) (human, UniProt Q9H7M9 33-194); assay: DD1α-Ig-coated beads on transfected 293T cells
T1 construct: also called DD1α-Fc fusion soluble protein; Fc-tagged soluble DD1α protein; not shown: mouse IgG-Fc region of the pCMV6-AC-FC vector (OriGene)
From the text: Scale bar, 50 μm. […] Scale bar, 100 μm. […] Scale bar, 50 μm.

His-DD1α (33-194) = target: T2, His-DD1α (33-194) (human, UniProt Q9H7M9 33-194); assay: GST pull-down, anti-His immunoblot
T2 construct: not shown: His tag of the pRSET vector (Invitrogen)

mouse DD1α on mouse cells (CD4+ and CD8+ T cells, thymocytes, bone marrow-derived macrophages) (mouse), sequence (Q9D659 33-308): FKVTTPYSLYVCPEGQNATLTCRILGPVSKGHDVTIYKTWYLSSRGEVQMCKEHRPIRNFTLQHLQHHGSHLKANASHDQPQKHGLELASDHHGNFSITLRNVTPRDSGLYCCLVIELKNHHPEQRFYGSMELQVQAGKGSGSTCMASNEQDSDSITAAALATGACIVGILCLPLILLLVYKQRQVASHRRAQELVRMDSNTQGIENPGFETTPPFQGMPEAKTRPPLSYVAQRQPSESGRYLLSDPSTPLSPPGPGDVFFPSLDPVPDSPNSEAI

DD1α-Ig as used on mouse T cells (Fc fusion)
inhibition of anti-CD3-induced proliferation of DD1α-/- mouse CD4+ or CD8+ T cells [1]: 30% | inhibition of anti-CD3-induced proliferation of Wt mouse CD4+ or CD8+ T cells [1]: 50%

PD-1-Ig: Recombinant human or mouse PD-1-Ig fusion protein from R&D Systems [reference compound]
reversal of PD-1-Ig-mediated inhibition of CD4+ T cell stimulation ([2]; DD1α−/− CD4+ T cells): ~30% | inhibition of anti-CD3-induced CD4+ T cell proliferation ([2]; mouse CD4+ T cells, wt): ~45% | pull down of DD1α (DD1α; lysates from transfected 293T cells): pulled down | pull down of endogenous DD1α receptor (DD1α; lysates of Nutlin-3-treated MCF7 cells): detected | binding to the surface of DD1α−/− CD4+ T cells compared with wt-CD4+ T cells [3]: significantly lower | binding to Jurkat cells expressing DD1α receptor [4]: bind

COc1ccc(C2=N[C@@H](c3ccc(Cl)cc3)[C@@H](c3ccc(Cl)cc3)N2C(=O)N2CCNC(=O)C2)c(OC(C)C)c1 [Nutlin-3]
CTLA-4 and ICOSL protein levels (MCF7 cells): did not respond | PD-1 and PD-L1 protein levels (MCF7 cells): induced

PD-1-Ig as used on mouse T cells (Fc fusion)
inhibition of anti-CD3-induced proliferation of mouse CD4+ T cells [1]: 45% | reversal of PD-1-Ig-mediated inhibition in DD1α-/- CD4+ T cells [1]: 30%

B1: DD1α-ΔIgV (immunoglobulin V domain (aa 45-168)-deleted mutant) expressed on transfected cells (receptor)
chain: FKVATPYSLYVCQTGKDAPSNCVVYPSSSQDSENITAAALATGACIVGILCLPLILLLVYKQRQAASNRRAQELVRMDSNIQGIENPGFEASPPAQGIPEAKVRHPLSYVAQRQPSESGRHLLSEPSTPLSPPGPGDVFFPSLDPVPDSPNFEVI
notes: signal peptide 1-32 left out; also called mutant lacking the IgV domain; IgV-deleted DD1α
binding result [5]: no binding

B2: GST-DD1α-ΔIgV (33-311, ΔIgV) (other)
chain: FKVATPYSLYVCQTGKDAPSNCVVYPSSSQDSENITAAALATGACIVGILCLPLILLLVYKQRQAASNRRAQELVRMDSNIQGIENPGFEASPPAQGIPEAKVRHPLSYVAQRQPSESGRHLLSEPSTPLSPPGPGDVFFPSLDPVPDSPNFEVI
notes: also called IgV-deleted mutant; IgV-deleted DD1α (GST fusion); not shown: N-terminal GST tag and linker of pGEX-6P-1
binding result (His-DD1α (33-194)): no binding

B3: GST-DD1α (215-311), the cytoplasmic region (other)
chain: VYKQRQAASNRRAQELVRMDSNIQGIENPGFEASPPAQGIPEAKVRHPLSYVAQRQPSESGRHLLSEPSTPLSPPGPGDVFFPSLDPVPDSPNFEVI
notes: also called the cytoplasmic region of DD1α (GST fusion); not shown: glutathione S-transferase tag of the pGEX-6P-1 vector
binding result (His-DD1α (33-194)): no binding

— patent publication US20170184604A1, “DD1ALPHA RECEPTOR AND USES THEREOF IN IMMUNE DISORDERS” (THE GENERAL HOSPITAL CORPORATION, priority 2014, published 2017)
